Test system: MV-4-11 cells
Experiment: Gene expression microarray analysis (Affymetrix PrimeView) and GSEA
Format: cell-based, human
Set-up: RFU PODN (11730768_x_at) / Fold change /veh PODN (11730768_x_at) / RFU LINC00158 (11744669_a_at) / Fold change /veh LINC00158 (11744669_a_at) / RFU DUSP10 (11751237_a_at) / Fold change /veh DUSP10 (11751237_a_at) / RFU ID3 (11757404_x_at) / Fold change /veh ID3 (11757404_x_at) / RFU PLEKHG5 (11737974_s_at) / Fold change /veh PLEKHG5 (11737974_s_at) / RFU LRRC4B (11730491_at) / Fold change /veh LRRC4B (11730491_at) / RFU GIMAP4 (11747438_a_at) / Fold change /veh GIMAP4 (11747438_a_at) / RFU KRT8 (11758183_x_at) / Fold change /veh KRT8 (11758183_x_at) / RFU CNN1 (11734310_a_at) / Fold change /veh CNN1 (11734310_a_at) / RFU VPS37D (11726825_at) / Fold change /veh VPS37D (11726825_at) / RFU C10orf10 (11716522_x_at) / Fold change /veh C10orf10 (11716522_x_at) / RFU KIR2DL2 /// KIR2DL4 /// KIR2DL5A /// KIR2DL5B /// KIR2DS1 /// KIR2DS2 /// KIR2DS3 /// KIR2DS4 /// KIR3DL3 /// KIR3DL3 /// KIR3DS1 (11738374_at) / Fold change /veh KIR2DL2 /// KIR2DL4 /// KIR2DL5A /// KIR2DL5B /// KIR2DS1 /// KIR2DS2 /// KIR2DS3 /// KIR2DS4 /// KIR3DL3 /// KIR3DL3 /// KIR3DS1 (11738374_at) / RFU C1QL1 (11718748_at) / Fold change /veh C1QL1 (11718748_at) / RFU TMPRSS4 (11747572_a_at) / Fold change /veh TMPRSS4 (11747572_a_at) / RFU HAMP (11756126_x_at) / Fold change /veh HAMP (11756126_x_at) / RFU RNFT2 (11725882_a_at) / Fold change /veh RNFT2 (11725882_a_at) / RFU NR4A2 (11747474_a_at) / Fold change /veh NR4A2 (11747474_a_at) / RFU ABCC12 (11746883_a_at) / Fold change /veh ABCC12 (11746883_a_at) / RFU TMEM136 (11760407_x_at) / Fold change /veh TMEM136 (11760407_x_at) / RFU CLDN22 /// WWC2 (11732394_at) / Fold change /veh CLDN22 /// WWC2 (11732394_at) / RFU HLA-DPB1 (11760878_x_at) / Fold change /veh HLA-DPB1 (11760878_x_at) / RFU SPINT1 (11716480_a_at) / Fold change /veh SPINT1 (11716480_a_at) / RFU GAP43 (11754022_s_at) / Fold change /veh GAP43 (11754022_s_at) / RFU A4GNT (11735810_at) / Fold change /veh A4GNT (11735810_at) / RFU PRB3 (11715151_x_at) / Fold change /veh PRB3 (11715151_x_at) / RFU TUBB4B (11761932_at) / Fold change /veh TUBB4B (11761932_at) / RFU CAPN14 (11732068_a_at) / Fold change /veh CAPN14 (11732068_a_at) / RFU TMCC2 (11721928_a_at) / Fold change /veh TMCC2 (11721928_a_at) / RFU IRGQ (11745062_a_at) / Fold change /veh IRGQ (11745062_a_at) / RFU FAM174B (11720279_a_at) / Fold change /veh FAM174B (11720279_a_at) / RFU TMPRSS4 (11748680_a_at) / Fold change /veh TMPRSS4 (11748680_a_at) / RFU FAM212B (11763350_a_at) / Fold change /veh FAM212B (11763350_a_at) / RFU PLEKHG5 (11743358_a_at) / Fold change /veh PLEKHG5 (11743358_a_at) / RFU ZSCAN30 (11745921_a_at) / Fold change /veh ZSCAN30 (11745921_a_at) / RFU CMKLR1 (11741424_a_at) / Fold change /veh CMKLR1 (11741424_a_at) / RFU LOC101060620 /// MAPK8IP1 (11723275_at) / Fold change /veh LOC101060620 /// MAPK8IP1 (11723275_at) / RFU SPTSSB (11747773_x_at) / Fold change /veh SPTSSB (11747773_x_at) / RFU PRSS12 (11739890_at) / Fold change /veh PRSS12 (11739890_at) / RFU BIN1 (11741810_x_at) / Fold change /veh BIN1 (11741810_x_at) / RFU WNT11 (11732464_a_at) / Fold change /veh WNT11 (11732464_a_at) / RFU C10orf10 (11716521_a_at) / Fold change /veh C10orf10 (11716521_a_at) / RFU C5orf56 (11738089_at) / Fold change /veh C5orf56 (11738089_at) / RFU CYB561 (11721691_x_at) / Fold change /veh CYB561 (11721691_x_at) / RFU ANKRD19P (11752326_a_at) / Fold change /veh ANKRD19P (11752326_a_at) / RFU OR2T12 /// OR2T33 /// OR2T8 (11738714_s_at) / Fold change /veh OR2T12 /// OR2T33 /// OR2T8 (11738714_s_at) / RFU VCAN (11748164_a_at) / Fold change /veh VCAN (11748164_a_at) / RFU JSRP1 (11732532_at) / Fold change /veh JSRP1 (11732532_at) / RFU KRTAP10-11 (11738290_x_at) / Fold change /veh KRTAP10-11 (11738290_x_at) / RFU MYO3A (11730013_a_at) / Fold change /veh MYO3A (11730013_a_at) / RFU EBF3 (11725865_a_at) / Fold change /veh EBF3 (11725865_a_at) / RFU CAMK2N1 (11719241_x_at) / Fold change /veh CAMK2N1 (11719241_x_at) / RFU C5orf56 (11738088_a_at) / Fold change /veh C5orf56 (11738088_a_at) / RFU OLFML3 (11715873_a_at) / Fold change /veh OLFML3 (11715873_a_at) / RFU LOC100653217 /// NTM (11731650_a_at) / Fold change /veh LOC100653217 /// NTM (11731650_a_at) / RFU MAPK11 (11762145_a_at) / Fold change /veh MAPK11 (11762145_a_at) / RFU FIZ1 (11724087_x_at) / Fold change /veh FIZ1 (11724087_x_at) / RFU OASL (11726364_x_at) / Fold change /veh OASL (11726364_x_at) / RFU SOX15 (11748057_x_at) / Fold change /veh SOX15 (11748057_x_at) / RFU CD79A (11719716_a_at) / Fold change /veh CD79A (11719716_a_at) / RFU HIST1H1D (11736915_at) / Fold change /veh HIST1H1D (11736915_at) / RFU CASKIN2 (11723855_a_at) / Fold change /veh CASKIN2 (11723855_a_at) / RFU LOC730098 (11760151_x_at) / Fold change /veh LOC730098 (11760151_x_at) / RFU OR4N2 (11742367_at) / Fold change /veh OR4N2 (11742367_at) / RFU PRRT2 (11749266_a_at) / Fold change /veh PRRT2 (11749266_a_at) / RFU SNX32 (11753110_a_at) / Fold change /veh SNX32 (11753110_a_at) / RFU CDHR5 (11726645_a_at) / Fold change /veh CDHR5 (11726645_a_at) / RFU RCAN1 (11760418_a_at) / Fold change /veh RCAN1 (11760418_a_at) / RFU FAM167A (11723789_a_at) / Fold change /veh FAM167A (11723789_a_at) / RFU FAM26E (11764081_at) / Fold change /veh FAM26E (11764081_at) / RFU ISYNA1 (11749810_s_at) / Fold change /veh ISYNA1 (11749810_s_at) / RFU ACY1 (11761880_at) / Fold change /veh ACY1 (11761880_at) / RFU 11764098_at / Fold change /veh 11764098_at / RFU SAMD14 (11745864_x_at) / Fold change /veh SAMD14 (11745864_x_at) / RFU NPB (11741838_a_at) / Fold change /veh NPB (11741838_a_at) / RFU TMPRSS6 (11731388_a_at) / Fold change /veh TMPRSS6 (11731388_a_at) / RFU KRTAP10-2 (11738614_at) / Fold change /veh KRTAP10-2 (11738614_at) / RFU ARHGAP8 /// PRR5-ARHGAP8 (11727945_x_at) / Fold change /veh ARHGAP8 /// PRR5-ARHGAP8 (11727945_x_at) / RFU KRTAP5-7 /// NADSYN1 (11734609_at) / Fold change /veh KRTAP5-7 /// NADSYN1 (11734609_at) / RFU RASL12 (11751679_a_at) / Fold change /veh RASL12 (11751679_a_at) / RFU CDKN2B (11736163_a_at) / Fold change /veh CDKN2B (11736163_a_at) / RFU PRF1 (11729649_at) / Fold change /veh PRF1 (11729649_at) / RFU, ZNF638 /// ZNF638-IT1 / Fold change vs veh, ZNF638 /// ZNF638-IT1 / RFU, PANK3 / Fold change vs veh, PANK3 / RFU, SH3YL1 / Fold change vs veh, SH3YL1 / RFU, ZEB2 / Fold change vs veh, ZEB2 / RFU, NRIP1 / Fold change vs veh, NRIP1 / RFU, PTTG1IP / Fold change vs veh, PTTG1IP / RFU, CAPN2 / Fold change vs veh, CAPN2 / RFU, MED14 / Fold change vs veh, MED14 / RFU, SNORA58 / Fold change vs veh, SNORA58 / RFU, C1orf63 / Fold change vs veh, C1orf63 / RFU, LRRFIP1 / Fold change vs veh, LRRFIP1 / RFU, NDUFAF7 / Fold change vs veh, NDUFAF7 / RFU, SLC12A2 / Fold change vs veh, SLC12A2 / RFU, IBTK / Fold change vs veh, IBTK / RFU, ESF1 / Fold change vs veh, ESF1 / Fold change vs veh, TMEM50B / RFU, TAOK1 / Fold change vs veh, TAOK1 / RFU, ACBD3 / Fold change vs veh, ACBD3 / RFU, TMA16 / Fold change vs veh, TMA16 / RFU, RWDD3 / Fold change vs veh, RWDD3 / RFU, BCAT1 / Fold change vs veh, BCAT1 / RFU, EDEM3 / Fold change vs veh, EDEM3 / RFU, TMEM33 / Fold change vs veh, TMEM33 / RFU, WDR75 / Fold change vs veh, WDR75 / RFU, AHCTF1 / Fold change vs veh, AHCTF1 / RFU, TFRC / Fold change vs veh, TFRC / RFU, ZDHHC17 / Fold change vs veh, ZDHHC17 / RFU, NOM1 / Fold change vs veh, NOM1 / RFU, ARL8B / Fold change vs veh, ARL8B / RFU, ZBTB11 / Fold change vs veh, ZBTB11 / RFU, TAMM41 / Fold change vs veh, TAMM41 / RFU, KIAA1704 /// LOC100996395 / Fold change vs veh, KIAA1704 /// LOC100996395 / RFU, ING1 / Fold change vs veh, ING1 / RFU, TRMT61B / Fold change vs veh, TRMT61B / RFU, FUBP3 / Fold change vs veh, FUBP3 / RFU, TP53 / Fold change vs veh, TP53 / RFU, TNKS2 / Fold change vs veh, TNKS2 / RFU, ZFP14 / Fold change vs veh, ZFP14 / RFU, ACTR2 / Fold change vs veh, ACTR2 / RFU, PPP3R1 / Fold change vs veh, PPP3R1 / RFU, PIK3R1 / Fold change vs veh, PIK3R1 / RFU, HNRNPA1 / Fold change vs veh, HNRNPA1 / RFU, RNF170 / Fold change vs veh, RNF170 / RFU, ZNF28 / Fold change vs veh, ZNF28 / RFU, RNGTT / Fold change vs veh, RNGTT / RFU, OGT / Fold change vs veh, OGT / RFU, BRD1 / Fold change vs veh, BRD1 / RFU, MARS / Fold change vs veh, MARS / RFU, ZNF655 / Fold change vs veh, ZNF655 / RFU, FAHD1 / Fold change vs veh, FAHD1 / RFU, BDP1 / Fold change vs veh, BDP1 / RFU, LRRCC1 / Fold change vs veh, LRRCC1 / RFU, ARID1A / Fold change vs veh, ARID1A / RFU, ZNF146 / Fold change vs veh, ZNF146 / RFU, ZNF330 / Fold change vs veh, ZNF330 / RFU, GPN3 / Fold change vs veh, GPN3 / RFU, C9orf123 / Fold change vs veh, C9orf123 / RFU, N4BP2L2 / Fold change vs veh, N4BP2L2 / RFU, ARFIP1 / Fold change vs veh, ARFIP1 / RFU, FAM179B / Fold change vs veh, FAM179B / RFU, BCL10 / Fold change vs veh, BCL10 / RFU, UHRF1BP1L / Fold change vs veh, UHRF1BP1L / RFU, BET1 / Fold change vs veh, BET1 / RFU, CNOT2 / Fold change vs veh, CNOT2 / RFU, ZNF268 / Fold change vs veh, ZNF268 / Fold change vs veh, ZNF507 / RFU, DGCR2 / Fold change vs veh, DGCR2 / RFU, WDSUB1 / Fold change vs veh, WDSUB1 / Fold change vs veh, HSP90B1 /// MIR3652 / RFU, ADSS / Fold change vs veh, ADSS / RFU, GK / Fold change vs veh, GK / RFU, ZNF148 / Fold change vs veh, ZNF148 / RFU, TAF9 / Fold change vs veh, TAF9 / RFU, SLC1A5 / Fold change vs veh, SLC1A5 / RFU, SLMO2 / Fold change vs veh, SLMO2 / RFU, ABCC4 / Fold change vs veh, ABCC4 / RFU, LOC101060439 /// RAP1B / Fold change vs veh, LOC101060439 /// RAP1B / RFU, RFX7 / Fold change vs veh, RFX7 / RFU, GTPBP10 / Fold change vs veh, GTPBP10 / RFU, CNEP1R1 / Fold change vs veh, CNEP1R1 / RFU, BIVM-ERCC5 /// ERCC5 / Fold change vs veh, BIVM-ERCC5 /// ERCC5 / RFU, ILF3 / Fold change vs veh, ILF3 / RFU 11762660_at / Fold change /veh 11762660_at / RFU VCAN (11757783_s_at) / Fold change /veh VCAN (11757783_s_at) / RFU DDX43 (11728927_at) / Fold change /veh DDX43 (11728927_at) / RFU KRT8 (11758188_x_at) / Fold change /veh KRT8 (11758188_x_at) / RFU NKD1 (11759106_at) / Fold change /veh NKD1 (11759106_at) / RFU SRD5A1 (11742802_a_at) / Fold change /veh SRD5A1 (11742802_a_at) / RFU TPSAB1 /// TPSB2 (11721975_s_at) / Fold change /veh TPSAB1 /// TPSB2 (11721975_s_at) / RFU GSTM3 (11746129_a_at) / Fold change /veh GSTM3 (11746129_a_at) / RFU IL23R (11737362_x_at) / Fold change /veh IL23R (11737362_x_at) / RFU TMEM51 (11727254_a_at) / Fold change /veh TMEM51 (11727254_a_at) / RFU PIWIL2 (11732686_x_at) / Fold change /veh PIWIL2 (11732686_x_at) / RFU ORM1 (11744905_x_at) / Fold change /veh ORM1 (11744905_x_at) / RFU CCDC152 (11743942_at) / Fold change /veh CCDC152 (11743942_at) / RFU ECM1 (11717891_a_at) / Fold change /veh ECM1 (11717891_a_at) / RFU IL23R (11748794_a_at) / Fold change /veh IL23R (11748794_a_at) / RFU TNFAIP8L3 (11732012_x_at) / Fold change /veh TNFAIP8L3 (11732012_x_at) / RFU MBOAT4 (11741988_at) / Fold change /veh MBOAT4 (11741988_at) / RFU 11764193_at / Fold change /veh 11764193_at / RFU TMEM53 (11763286_at) / Fold change /veh TMEM53 (11763286_at) / RFU MAGEB2 (11727129_at) / Fold change /veh MAGEB2 (11727129_at) / RFU TMEM200A (11744735_a_at) / Fold change /veh TMEM200A (11744735_a_at) / RFU CCDC152 (11751479_a_at) / Fold change /veh CCDC152 (11751479_a_at) / RFU FAM211A (11726209_a_at) / Fold change /veh FAM211A (11726209_a_at) / RFU RGS16 (11746705_a_at) / Fold change /veh RGS16 (11746705_a_at) / RFU VCAN (11755009_s_at) / Fold change /veh VCAN (11755009_s_at) / RFU RHOB (11743442_s_at) / Fold change /veh RHOB (11743442_s_at) / RFU RGS16 (11720943_a_at) / Fold change /veh RGS16 (11720943_a_at) / RFU RGS16 (11720944_at) / Fold change /veh RGS16 (11720944_at) / RFU, VPS4B / Fold change vs veh, VPS4B / RFU, CREB1 / Fold change vs veh, CREB1 / RFU, DNAJC13 / Fold change vs veh, DNAJC13 / RFU, GNAQ / Fold change vs veh, GNAQ / RFU, CDK5R1 / Fold change vs veh, CDK5R1 / RFU, ZRANB3 / Fold change vs veh, ZRANB3 / RFU, CUL4A / Fold change vs veh, CUL4A / RFU, CCNY / Fold change vs veh, CCNY / RFU, UFL1 / Fold change vs veh, UFL1 / RFU, COG3 / Fold change vs veh, COG3 / RFU, DIAPH2 / Fold change vs veh, DIAPH2 / RFU, SKA2 / Fold change vs veh, SKA2 / RFU, AFF3 / Fold change vs veh, AFF3 / RFU, LMF1 / Fold change vs veh, LMF1 / RFU, IPO11 / Fold change vs veh, IPO11 / RFU, DFFB / Fold change vs veh, DFFB / RFU, FOXP1 / Fold change vs veh, FOXP1 / RFU, CARD8 / Fold change vs veh, CARD8 / RFU, STRN3 / Fold change vs veh, STRN3 / RFU, ADK / Fold change vs veh, ADK / RFU, RASSF2 / Fold change vs veh, RASSF2 / RFU, WIPF1 / Fold change vs veh, WIPF1 / RFU, LARP1B / Fold change vs veh, LARP1B / RFU, RASA1 / Fold change vs veh, RASA1 / RFU, RB1 / Fold change vs veh, RB1 / RFU, PPFIA1 / Fold change vs veh, PPFIA1 / RFU, MAT2A / Fold change vs veh, MAT2A / RFU, CCT5 / Fold change vs veh, CCT5 / RFU, WDR92 / Fold change vs veh, WDR92 / RFU, CUX1 / Fold change vs veh, CUX1 / RFU, TTC7A / Fold change vs veh, TTC7A / RFU, TMEM135 / Fold change vs veh, TMEM135 / RFU, DEPTOR / Fold change vs veh, DEPTOR / RFU, CPM / Fold change vs veh, CPM / RFU, DNAJB6 / Fold change vs veh, DNAJB6 / RFU, CACNA2D3 / Fold change vs veh, CACNA2D3 / RFU, DTX4 / Fold change vs veh, DTX4 / RFU, TFCP2 / Fold change vs veh, TFCP2 / RFU, GMCL1 /// GMCL1P1 / Fold change vs veh, GMCL1 /// GMCL1P1 / RFU, AEBP2 / Fold change vs veh, AEBP2 / RFU, SNHG1 /// SNORD22 /// SNORD25 /// SNORD26 /// SNORD27 /// SNORD28 /// SNORD29 /// SNORD31 / Fold change vs veh, SNHG1 /// SNORD22 /// SNORD25 /// SNORD26 /// SNORD27 /// SNORD28 /// SNORD29 /// SNORD31 / Fold change (Aza/veh), C12orf56 (ProbeSet 11735607_a_at) / Fold change (ACY-1035/veh), C12orf56 (ProbeSet 11735607_a_at) / Fold change (Aza/veh), FGFR1OP (ProbeSet 11751329_s_at) / Fold change (ACY-1035/veh), FGFR1OP (ProbeSet 11751329_s_at) / Fold change (Aza/veh), VPS36 (ProbeSet 11739960_a_at) / Fold change (ACY-1035/veh), VPS36 (ProbeSet 11739960_a_at) / RFU SYPL1 (11715823_x_at) / Fold change /veh SYPL1 (11715823_x_at) / RFU IGFBP7 (11715501_s_at) / Fold change /veh IGFBP7 (11715501_s_at) / RFU REEP3 (11722064_at) / Fold change /veh REEP3 (11722064_at) / RFU IGLL1 (11728026_x_at) / Fold change /veh IGLL1 (11728026_x_at): dose or concentration left out as unconfirmed
Details: ProbeSet 11733831_s_at; LIST D

Nc1ccc(-c2cccs2)cc1NC(=O)c1ccc2c(c1)cc(C1CC1)n2CCN1CCOCC1 [ACY-1035]
RFU, GMCL1 /// GMCL1P1: 34.22 RFU

From paper PMC5218480 (PLoS ONE, 2017)
